From ChEMBL document CHEMBL1135171, “Discovery of potent and selective small molecule NPY Y5 receptor antagonists” (Bioorg Med Chem Lett, 2002)

Key:
[1] = biological target: T1, Neuropeptide Y receptor type 5 (Homo sapiens, UniProt Q15761); test: Tested for radioligand binding affinity against membranes from COS-7 cells transiently transfected with Neuropeptide Y receptor type 5; format: cell membranes
T1 sequence (Q15761 whole entry): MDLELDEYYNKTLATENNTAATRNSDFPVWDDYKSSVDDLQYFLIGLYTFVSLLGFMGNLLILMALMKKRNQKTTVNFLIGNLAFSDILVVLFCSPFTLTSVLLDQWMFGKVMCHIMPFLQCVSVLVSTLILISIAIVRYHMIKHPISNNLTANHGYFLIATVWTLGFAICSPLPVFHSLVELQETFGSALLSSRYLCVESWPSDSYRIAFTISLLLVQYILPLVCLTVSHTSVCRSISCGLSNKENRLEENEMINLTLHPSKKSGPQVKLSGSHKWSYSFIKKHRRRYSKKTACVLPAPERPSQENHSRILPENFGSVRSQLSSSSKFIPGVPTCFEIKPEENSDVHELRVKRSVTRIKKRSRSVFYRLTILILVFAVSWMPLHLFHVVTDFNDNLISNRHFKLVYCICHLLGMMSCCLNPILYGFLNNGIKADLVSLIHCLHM

[2] = biological target: T2, Neuropeptide Y receptor type 1 (Homo sapiens, UniProt P25929); test: Tested for radioligand binding affinity against membranes from COS-7 cells transiently transfected with Neuropeptide Y receptor type 1; format: cell membranes
T2 sequence (P25929 whole entry): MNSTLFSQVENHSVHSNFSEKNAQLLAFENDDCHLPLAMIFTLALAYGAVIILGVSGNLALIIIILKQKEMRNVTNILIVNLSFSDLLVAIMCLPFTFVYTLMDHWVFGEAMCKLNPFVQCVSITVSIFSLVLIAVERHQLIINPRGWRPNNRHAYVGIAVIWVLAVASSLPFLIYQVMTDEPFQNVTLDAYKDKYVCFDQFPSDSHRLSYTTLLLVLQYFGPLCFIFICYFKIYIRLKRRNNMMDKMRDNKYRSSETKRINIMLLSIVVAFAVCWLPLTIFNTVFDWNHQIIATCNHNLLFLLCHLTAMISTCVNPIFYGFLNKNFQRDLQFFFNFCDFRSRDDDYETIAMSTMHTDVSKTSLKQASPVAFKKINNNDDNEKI

[3] = biological target: T3, Alpha-2C adrenergic receptor (Homo sapiens, UniProt P18825); test: Bnding affinity against cloned human Alpha-2C adrenergic receptor was evaluated
T3 sequence (P18825 whole entry): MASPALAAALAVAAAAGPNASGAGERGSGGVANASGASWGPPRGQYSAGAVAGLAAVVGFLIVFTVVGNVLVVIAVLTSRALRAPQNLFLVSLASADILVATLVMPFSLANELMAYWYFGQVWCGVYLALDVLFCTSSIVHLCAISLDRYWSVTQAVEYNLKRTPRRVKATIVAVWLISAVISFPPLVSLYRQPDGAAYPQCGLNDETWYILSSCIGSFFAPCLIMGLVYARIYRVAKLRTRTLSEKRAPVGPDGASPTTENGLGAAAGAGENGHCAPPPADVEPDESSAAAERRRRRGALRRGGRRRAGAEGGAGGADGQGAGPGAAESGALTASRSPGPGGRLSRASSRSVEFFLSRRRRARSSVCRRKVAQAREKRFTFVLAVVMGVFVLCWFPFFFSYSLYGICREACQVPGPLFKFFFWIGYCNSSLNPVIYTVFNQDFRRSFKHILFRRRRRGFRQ

[4] = biological target: D(2) dopamine receptor (Homo sapiens, UniProt P14416); test: Binding affinity against cloned human Dopamine receptor D2 was evaluated
[5] = biological target: T4, Neuropeptide Y receptor type 1 (Rattus norvegicus, UniProt P21555); test: Functional response of NPY to inhibit forskolin-stimulated cAMP in cells stably transfected with Neuropeptide Y receptor type 1
T4 sequence (P21555 whole entry): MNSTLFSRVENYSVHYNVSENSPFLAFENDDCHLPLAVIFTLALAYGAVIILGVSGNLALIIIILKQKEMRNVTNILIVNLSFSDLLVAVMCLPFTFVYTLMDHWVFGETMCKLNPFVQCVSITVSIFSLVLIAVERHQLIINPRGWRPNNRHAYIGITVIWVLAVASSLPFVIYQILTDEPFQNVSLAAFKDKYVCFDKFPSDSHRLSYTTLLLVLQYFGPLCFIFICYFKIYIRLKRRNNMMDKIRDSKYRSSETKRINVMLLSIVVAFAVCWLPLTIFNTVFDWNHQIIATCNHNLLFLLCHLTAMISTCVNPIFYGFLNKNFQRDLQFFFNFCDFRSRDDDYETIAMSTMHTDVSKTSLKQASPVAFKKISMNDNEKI

[6] = biological target: T5, Neuropeptide Y receptor type 5 (Rattus norvegicus, UniProt Q63634); test: Functional response of NPY to inhibit forskolin-stimulated cAMP in cells stably transfected with rat Neuropeptide Y receptor type 5
T5 sequence (Q63634 whole entry): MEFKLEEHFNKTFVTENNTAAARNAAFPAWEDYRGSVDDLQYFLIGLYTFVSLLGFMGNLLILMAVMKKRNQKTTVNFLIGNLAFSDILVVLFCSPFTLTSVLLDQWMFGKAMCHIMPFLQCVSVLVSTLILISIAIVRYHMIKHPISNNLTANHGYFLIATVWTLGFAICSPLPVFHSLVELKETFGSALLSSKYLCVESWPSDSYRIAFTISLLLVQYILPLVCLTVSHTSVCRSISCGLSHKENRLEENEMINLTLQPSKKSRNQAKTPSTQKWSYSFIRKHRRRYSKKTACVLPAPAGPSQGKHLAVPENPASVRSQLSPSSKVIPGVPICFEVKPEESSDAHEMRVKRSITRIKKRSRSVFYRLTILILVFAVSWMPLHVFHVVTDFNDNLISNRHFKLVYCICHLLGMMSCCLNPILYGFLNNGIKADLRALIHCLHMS

D(2) dopamine receptor, sequence (P14416 whole entry): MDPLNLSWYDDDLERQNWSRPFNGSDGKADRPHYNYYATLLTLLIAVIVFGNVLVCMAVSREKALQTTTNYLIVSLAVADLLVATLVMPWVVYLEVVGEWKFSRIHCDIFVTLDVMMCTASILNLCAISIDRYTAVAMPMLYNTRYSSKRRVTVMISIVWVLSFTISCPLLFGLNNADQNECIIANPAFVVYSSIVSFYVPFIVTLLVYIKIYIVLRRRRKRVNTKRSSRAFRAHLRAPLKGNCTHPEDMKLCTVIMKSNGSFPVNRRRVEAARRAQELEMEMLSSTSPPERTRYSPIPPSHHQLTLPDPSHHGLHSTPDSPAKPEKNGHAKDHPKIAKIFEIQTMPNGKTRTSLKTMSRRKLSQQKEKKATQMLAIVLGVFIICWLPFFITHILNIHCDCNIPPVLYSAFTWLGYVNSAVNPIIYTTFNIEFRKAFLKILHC

Row | SMILES | Ki [1] | Ki [2] | Ki [3] | Ki [4] | Ki [5] | Ki [6]
1 | O=[N+]([O-])c1ccccc1S(=O)(=O)NC[C@H]1CC[C@H](CNCc2ccnc3ccccc23)CC1 | 28 nM | 48700 nM | – | – | – | –
2 | O=S(=O)(NC[C@H]1CC[C@H](CNCC2CCc3ccccc3C2)CC1)c1cccc2ccccc12 (some centres undefined) | 11 nM | 3550 nM | – | – | – | –
3 | O=[N+]([O-])c1ccccc1S(=O)(=O)NC[C@H]1CC[C@H](CNCC2CCc3ccccc3C2)CC1 (some centres undefined) | 8 nM | 16000 nM | 100 nM | 63 nM | 22000 nM | 18 nM
4 | O=S(=O)(NC[C@H]1CC[C@H](CNCc2cccc3ccccc23)CC1)c1ccccc1C(F)(F)F | 26 nM | 14500 nM | – | – | – | –
5 | O=S(=O)(NC[C@H]1CC[C@H](CNCc2ccc3ccccc3c2)CC1)c1ccccc1C(F)(F)F | 10 nM | 13000 nM | – | – | – | –
6 | O=[N+]([O-])c1ccccc1S(=O)(=O)NC[C@H]1CC[C@H](CNCc2ccc3ccccc3n2)CC1 | – | 23700 nM | – | – | – | –
7 | O=S(=O)(NCCCCCCNCc1ccc2ccccc2c1)c1ccc2ccccc2c1 | 123 nM | 7300 nM | – | – | – | –
8 | Nc1ccccc1S(=O)(=O)NC[C@H]1CC[C@H](CNCC2CCc3ccccc3C2)CC1 (some centres undefined) | 10 nM | 17200 nM | – | – | – | –
